According to patent US6699884B2, “Fluoro-substituted benzenesulfonyl compounds for the treatment of inflammation” (Pharmacia Corporation, priority 2001, dated 2004):

Columns and labels:
Human COX-2 = target: T1, Human COX-2 (Homo sapiens, UniProt P35354); test: Fast assay for COX-2 activity (PGE2 formed, ELISA); assay type: biochemical; conditions: recombinant enzyme in CHAPS-solubilized insect cell membranes; 10 min pre-incubation at 25° C.; 10 μM arachidonic acid
T1 construct: A 2.0 kb fragment containing the coding region of either human or murine COX-1 or human or murine COX-2; made in house; host or cells: SF9 insect cells (baculovirus, pVL1393)
T1 sequence (P35354 18-604): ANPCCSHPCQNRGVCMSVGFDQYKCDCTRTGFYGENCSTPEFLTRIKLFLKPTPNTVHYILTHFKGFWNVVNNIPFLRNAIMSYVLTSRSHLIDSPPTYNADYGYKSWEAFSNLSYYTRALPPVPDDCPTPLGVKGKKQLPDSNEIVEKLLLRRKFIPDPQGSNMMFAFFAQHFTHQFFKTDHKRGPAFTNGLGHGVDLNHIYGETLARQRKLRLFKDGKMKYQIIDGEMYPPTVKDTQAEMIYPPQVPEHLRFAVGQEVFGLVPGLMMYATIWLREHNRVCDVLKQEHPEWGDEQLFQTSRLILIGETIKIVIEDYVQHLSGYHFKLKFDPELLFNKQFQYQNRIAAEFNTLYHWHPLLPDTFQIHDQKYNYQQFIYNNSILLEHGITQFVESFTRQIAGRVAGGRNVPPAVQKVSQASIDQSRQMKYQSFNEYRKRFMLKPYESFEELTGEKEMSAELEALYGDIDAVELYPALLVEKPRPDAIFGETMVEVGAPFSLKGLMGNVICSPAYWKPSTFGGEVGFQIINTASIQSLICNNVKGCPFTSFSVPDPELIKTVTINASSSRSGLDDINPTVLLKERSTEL

Human COX-1 = target: T2, Human COX-1 (Homo sapiens, UniProt P23219); test: Fast assay for COX-1 activity (PGE2 formed, ELISA); assay type: biochemical; conditions: recombinant enzyme in CHAPS-solubilized insect cell membranes; 10 min pre-incubation at 25° C.; 10 μM arachidonic acid
T2 construct: A 2.0 kb fragment containing the coding region of either human or murine COX-1 or human or murine COX-2; made in house; host or cells: SF9 insect cells (baculovirus, pVL1393)
T2 sequence (P23219 24-599): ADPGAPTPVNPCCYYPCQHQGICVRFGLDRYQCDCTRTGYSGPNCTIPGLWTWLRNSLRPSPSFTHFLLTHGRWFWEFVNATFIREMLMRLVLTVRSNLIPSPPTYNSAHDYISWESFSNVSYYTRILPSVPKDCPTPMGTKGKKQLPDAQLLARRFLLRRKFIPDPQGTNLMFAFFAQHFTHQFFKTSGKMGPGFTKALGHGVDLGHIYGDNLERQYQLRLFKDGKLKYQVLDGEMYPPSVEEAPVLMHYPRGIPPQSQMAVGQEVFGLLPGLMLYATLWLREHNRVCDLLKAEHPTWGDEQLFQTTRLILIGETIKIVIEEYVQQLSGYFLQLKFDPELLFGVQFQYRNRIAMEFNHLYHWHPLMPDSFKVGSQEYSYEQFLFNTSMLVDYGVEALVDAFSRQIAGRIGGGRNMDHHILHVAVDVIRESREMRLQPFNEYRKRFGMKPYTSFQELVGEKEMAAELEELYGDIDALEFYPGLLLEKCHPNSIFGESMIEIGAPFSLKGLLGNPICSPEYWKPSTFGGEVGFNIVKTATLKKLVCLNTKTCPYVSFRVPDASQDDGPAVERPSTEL
Description: Recombinant baculoviruses were isolated by transfecting 4 μg of baculovirus transfer vector DNA into SF9 insect cells (2×10^8) along with 200 ng of linearized baculovirus plasmid DNA by the calcium phosphate method. See M. D. Summers and G. E. Smith, A Manual of Methods for Baculovirus Vectors and Insect Cell Culture Procedures, Texas Agric. Exp. Station Bull. […] Recombinant viruses were purified by three rounds of plaque purification and high titer (10^7-10^8 pfu/mL) stocks of virus were prepared. For large scale production, SF9 insect cells were infected in 10 liter fermentors (0.5×10^6/mL) with the recombinant baculovirus stock such that the multiplicity of infection was 0.1. After 72 hours the cells were centrifuged and the cell pellet homogenized in Tris/Sucrose (50 mM: 25%, pH 8.0) containing 1% 3-[(3-cholamidopropyl)dimethylammonio]-1-propanesulfonate (CHAPS). The homogenate was centrifuged at 10,000×G for 30 minutes, and the resultant supernatant was stored at −80° C. before being assayed for COX activity.
COX activity was assayed as PGE2 formed/μg protein/time using an ELISA to detect the prostaglandin released. CHAPS-solubilized insect cell membranes containing the appropriate COX enzyme were incubated in a potassium phosphate buffer (50 mM, pH 8.0) containing epinephrine, phenol, and heme with the addition of arachidonic acid (10 μM). Compounds were pre-incubated with the enzyme for 10-20 minutes prior to the addition of arachidonic acid. Any reaction between the arachidonic acid and the enzyme was stopped after ten minutes at 37° C. room temperature by transferring 40 μl of reaction mix into 160 μl ELISA buffer and 25 μM indomethacin. The PGE2 formed was measured by standard ELISA technology (Cayman Chemical).
COX activity was assayed as PGE2 formed/μg protein/time using an ELISA to detect the prostaglandin released. […] Compounds were pre-incubated with the enzyme for 10 minutes at 25° C. prior to the addition of arachidonic acid. Any reaction between the arachidonic acid and the enzyme was stopped after two minutes at 37° C./room temperature by transferring 40 μl of reaction mix into 160 μl ELISA buffer and 25 μM indomethacin. The PGE2 formed was measured by standard ELISA technology (Cayman Chemical).

IC50 (Human COX-2) [nM] | IC50 (Human COX-1) [nM] | Structure (SMILES)
90 | > 100000 | Cc1ccc(-n2nc(C(F)(F)F)cc2-c2cc(F)c(S(C)(=O)=O)c(F)c2)cc1Cl [Example 6, 1-(3-chloro-4-methylphenyl)-5-[3,5-difluoro-4-(methylsulfonyl)phenyl]-3-(trifluoromethyl)-1H-pyrazole]
250 | 14800 | COc1ccc(-n2nc(C(F)(F)F)cc2-c2cc(F)c(S(C)(=O)=O)cc2F)cc1 [Example 8, 5-[2,5-difluoro-4-(methylsulfonyl)phenyl]-1-(4-methoxyphenyl)-3-(trifluoromethyl)-1H-pyrazole]
100 | > 100000 | CS(=O)(=O)c1c(F)cc(-c2cc(C(F)(F)F)nn2-c2ccc(OC(F)(F)F)cc2)cc1F [Example 4, 5-[3,5-difluoro-4-(methylsulfonyl)phenyl]-1-[4-(trifluoromethoxy)phenyl]-3-(trifluoromethyl)-1H-pyrazole]
 | > 100000 | Cc1onc(-c2ccccc2)c1-c1cc(F)c(S(C)(=O)=O)c(F)c1 [Example 14, 4-[3,5-difluoro-4-(methylsulfonyl)phenyl]-5-methyl-3-phenylisoxazole]
90 | 56700 | CS(=O)(=O)c1cc(F)c(-c2cc(C(F)(F)F)nn2-c2ccc(Cl)cc2)cc1F [Example 7, 1-(4-chlorophenyl)-5-[2,5-difluoro-4-(methylsulfonyl)-phenyl]-3-(trifluoromethyl)-1H-pyrazole]
 | > 100000 | CS(=O)(=O)c1c(F)cc(-c2cc(C(F)F)nn2C2CCCCC2)cc1F [Example 5, 1-cyclohexyl-3-(difluoromethyl)-5-[3,5-difluoro-4-(methylsulfonyl)phenyl]-1H-pyrazole]
300 | > 100000 | CS(=O)(=O)c1c(F)cc(-c2cc(C(F)(F)F)nn2-c2cccc(C(F)(F)F)c2)cc1F [Example 3, 5-[3,5-difluoro-4-(methylsulfonyl)phenyl]-3-(trifluoromethyl)-1-[3-(trifluoromethyl)phenyl]-1H-pyrazole]
120 | > 100000 | Cc1onc(-c2ccccc2)c1-c1cc(F)c(S(N)(=O)=O)c(F)c1 [Example 15, 2,6-difluoro-4-(5-methyl-3-phenylisoxazol-4-yl)benzene-sulfonamide]
550 | > 100000 | Cc1ccc(-n2nc(C(F)F)cc2-c2cc(F)c(S(C)(=O)=O)c(F)c2)cc1Cl [Example 2, 1-(3-chloro-4-methylphenyl)-3-(difluoromethyl)-5-[3,5-difluoro-4-(methylsulfonyl)phenyl]-1H-pyrazole]
3440 | > 100000 | CS(=O)(=O)c1c(F)cc(-c2cc(C(F)(F)F)nn2-c2ccc(F)cc2)cc1F [Example 1, 5-[3,5-difluoro-4-(methylsulfonyl)phenyl]-1-(4-fluorophenyl)-3-(trifluoromethyl)-1H-pyrazole]
